Converted amounts (≈) assume the structure as drawn.
Tested on: Aedes aegypti
Assay: Larvicidal activity against second instar larvae of Aedes aegypti
Format: functional

| Structure (SMILES) | LC50 [µg/mL] |
| --- | --- |
| C#CCCCCCCCCCCC1=C[C@H](C)OC1=O | 0.41 (≈ 1.56 µM) |
| C=CCCCCCCCCCCC1=C[C@H](C)OC1=O | 0.47 (≈ 1.78 µM) |
